Data as given in patent US20230172958A1, “USE OF COMPOUNDS FOR TREATING VIRAL INFECTIONS” (priority 2020, published 2023).

Key:
Assay type in all cases: cell-based
V-ATPase = V-ATPase ELISA (Human V-Type Proton ATPase ELISA kit) on treated MDAMB231 cells; conditions: 100 nM (0.1 μM)/10,000 cells, 48 hours
Protocol: An ELISA test was performed using Human V-Type Proton ATPase ELISA kit (My BioSource Catlog no: MBS911862) to determine the V-ATPase inhibitory effect of the compounds of the present invention.
Procedure: 1.0 million cells of MDAMB231 (cell line rich in V-ATPase) were plated on 60 mm plates for 24 hours at 37° C. and 5% CO2. The cells were treated with the test compounds (Formula A to U) at a concentration of 100 nM (0.1 μM)/10,000 cells and incubated for 48 hours. After incubation the supernatant was discarded, the cells were washed with D.P.B.S. (Dulbecco's phosphate-buffered saline), scraped and stored at −80° C. for 48 hours. The cells were thawed, vortexed, homogenized for 7 minutes, followed by centrifugation for 3 minutes at 3000 R.P.M. The supernatant was taken for V-ATPase Assay.
Standards and samples were pipetted into the wells. Antibody specific for V-ATPase was pre-coated onto a microplate. Any V-ATPase present in the standard /sample would get bound by the immobilized antibody. After the incubation period any unbound substances were removed by washing and a biotin-conjugated antibody specific for V-ATPase was added to the wells and plates were re-incubated at 37° C. and 5% CO2. After washing, avidin conjugated Horseradish Peroxidase (HRP) was added to the wells. Following a wash to remove any unbound avidin-enzyme reagent, a substrate solution was added to the wells and colour developed was in proportion to the amount of V-ATPase bound in the initial step. The colour development was stopped, and the optical density was measured at 450 nm spectrophotometrically. The concentration of V-ATPase was then calculated by substituting the optical density in the regression equation obtained from the standards. Percent (%) reduction in V-ATPase was calculated by subtracting the amount of V-ATPase obtained from the untreated/conc. of V-ATPase in untreated X100.

[1] = Neutral Red toxicity assay, uninfected cultures; conditions: African green monkey, Vero 76 cells (uninfected monolayers), cell-inhibitory
Protocol: Confluent or near-confluent cell culture monolayers of Vero 76 cells were prepared in 96-well disposable microplates the day before testing. Cells were maintained in MEM (Minimum Essential Medium Eagle) supplemented with 5% FBS (Fetal Bovine Serum). For antiviral assays the same medium was used but with FBS reduced to 2% and supplemented with 50-μg/ml gentamicin.
Compounds were dissolved in DMSO, saline or the diluent. […] The test compound was prepared at four serial log10 concentrations, usually 0.1, 1.0, 10, and 100 μg/ml or μM. Lower concentrations were used when insufficient compound was supplied. Five microwells were used per dilution: three for infected cultures and two for uninfected toxicity cultures. Controls for the experiment consisted of six microwells that were infected and not treated (virus controls) and six that were untreated and uninfected (cell controls) on every plate. A known active drug was tested in parallel as a positive control drug using the same method as was applied for test compounds. The positive control was tested with every test run.
Growth media was removed from the cells and the test compound was applied in 0.1 ml volume to wells at 2× concentration. Virus, normally at ˜60 CCID50 (50% cell culture infectious dose) in 0.1 ml volume is added to the wells designated for virus infection. Medium devoid of virus was placed in toxicity control wells and cell control wells. […] The plates were then stained with 0.011% neutral red for approximately two hours at 37° C. in a 5% CO2 incubator. The neutral red medium was removed by complete aspiration, and the cells may be rinsed 1× with phosphate buffered solution (PBS) to remove residual dye. The PBS was completely removed, and the incorporated neutral red was eluted with 50% Sorensen's citrate buffer/50% ethanol for at least 30 minutes. Neutral red dye penetrates into living cells, thus, the more intense the red color, the larger the number of viable cells present in the wells. The dye content in each well was quantified using a spectrophotometer at 540 nm wavelength. The dye content in each set of wells was converted to a percentage of dye present in untreated control wells using a Microsoft Excel computer-based spreadsheet and normalized based on the virus control. The 50% effective (EC50, virus-inhibitory) concentrations and 50% cytotoxic (CC50, cell-inhibitory) concentrations are then calculated by regression analysis. The quotient of CC50 divided by EC50 gives the selectivity index (SI) value.

SARS-CoV-2 = test: Neutral Red reduction of virus-induced cytopathic effect (primary CPE assay) in Vero 76 cells; conditions: Severe acute respiratory syndrome coronavirus 2, virus-inhibitory
[2] = tested on: Human Peripheral Blood Lymphocytes; test: MTT toxicity assay on normal cells; conditions: 48 hours
Protocol: Toxicity studies of compounds of the present invention on normal cells The toxicity study was performed on Human Peripheral Blood Lymphocytes obtained differential centrifugation of defibrinated blood. MTT assay for compound of the present invention was performed to determine its toxicity. MTT assay is a simple and sensitive assay where, metabolic reducing activity of the cells is measured. It was carried out in the following manner.
A required volume of cell suspension was prepared as per the cell plating efficiency. 200 μl of prepared cell suspension was added in labelled 96 well plates and the plates were placed in an incubator for 18-24 hours at 37° C. and 5% CO2. Then, 2 μl of respective compound dilution was added and the plates were placed in the incubator for 48 hours at 37° C. and 5% CO2. The suspension was aspirated from the plates and 100 μl of working MTT solution (0.5 mg/ml MTT prepared from 5 mg/ml MTT stock in 1× complete media) was added. The plates were incubated in the incubator for 4 hours at 37° C. and 5% CO2. The plates were spinned down, supernatant removed, 200 μl DMSO was added, mixed gently and placed in the incubator for 10 minutes at 37° C. and 5% CO2. The absorbance at 570 nm was read and percentage viability and IC50 value of the compounds was calculated using regression analysis.

Row | Compound | reduction of V-ATPase (%) (V-ATPase) | CC50 [1] [µg/mL] | EC50 (SARS-CoV-2) [µg/mL] | IC50 (μM) [2]
1 | C=CCNCCCCCCOc1ccc(-c2ccc3c(c2)OCO3)c2c1CCCC2 [Compound of Formula R, 6-(5-(benzo[d][1,3]dioxol-5-yl)-1,2,3,4-tetrahydronaphthalen-8-yloxy)-N-allylhexan-1-amine] | 16.2 |  |  | 
2 | O=C(CN1CCNCC1)Nc1ccc(-c2ccc3c(c2)OCO3)c2ccccc12 [Compound of Formula K, N-(1-(benzo[d][1,3]dioxol-5-yl)naphthalen-4-yl)-2-(piperazin-1-yl)acetamide] | 28.05 |  |  | 
3 | O[C@H]1[C@H](O)COC(Oc2ccc(-c3ccc4c(c3)OCO4)c3ccccc23)[C@@H]1O (stereo partly drawn) [Compound of Formula F, (3R,4S,5R)-2-(1-(benzo[d][1,3]dioxol-5-yl)naphthalen-4-yloxy)-tetrahydro-2H-pyran-3,4,5-triol] | 61.0 | 32 | 2.9 | 
4 | COc1cccc(-c2ccc(OCCN3CCOCC3)c3ccccc23)c1 [Compound of Formula P, 4-(2-(1-(3-methoxyphenyl)naphthalen-4-yloxy)ethyl)morpholine] | 18.27 |  |  | No activity (Nontoxic)
5 | O=C(Nc1ccc(-c2ccc3c(c2)OCO3)c2ccccc12)c1ccco1 [Compound of Formula G, N-(1-(benzo[d][1,3]dioxol-5-yl)naphthalen-4-yl)furan-2-carboxamide] | 62.37 |  |  | 
6 | COc1cc2c(OC(=O)c3cccn3C)c3c(c(-c4ccc5c(c4)OCO5)c2cc1OC)C(=O)OC3 [Compound of Formula B, 9-(benzo[d][1,3]dioxol-5-yl)-1,3-dihydro-6,7-dimethoxy-1-oxonaphtho[2,3-c]furan-4-yl 1-methyl-1H-pyrrole-2-carboxylate] | 15.33 |  |  | No activity (Nontoxic)
7 | c1ccc(COc2ccc(-c3ccc4c(c3)OCO4)c3cccnc23)cc1 [Compound of Formula H, 5-(benzo[d][1,3]dioxol-5-yl)-8-(benzyloxy)quinoline] | 61.34 |  |  | 
8 | c1cnc2c(OCCN3CCOCC3)ccc(-c3ccc4c(c3)OCO4)c2c1 [Compound of Formula S, 8-(2-morpholinoethoxy)-5-(benzo[d][1,3]dioxol-5-yl)quinoline] | 75.5 |  |  | 
9 | c1ccc2c(-c3ccc4c(c3)OCO4)ccc(OCCCCNC3CCCCC3)c2c1 [Compound of Formula N, N-(4-(1-(benzo[d][1,3]dioxol-5-yl)naphthalen-4-yloxy)butyl)cyclohexanamine] | 6.3 |  |  | 
10 | O=S(=O)(Nc1ccc(-c2ccc3c(c2)OCO3)c2ccccc12)c1ccc(F)cc1 [Compound of Formula J, N-(1-(benzo[d][1,3]dioxol-5-yl)naphthalen-4-yl)-4-fluorobenzenesulphonamide] | 60.96 |  |  | 
11 | COc1cc2c(OC3OCC(OC)C(OC)C3O)c3c(c(-c4ccc5c(c4)OCO5)c2cc1OC)C(=O)OC3 (stereo not drawn) [Compound of Formula A, 9-(benzo[d][1,3]dioxol-5-yl)-6,7-dimethoxy-4-(tetrahydro-3-hydroxy-4,5-dimethoxy-2H-pyran-2-yloxy)naphtho[2,3-c]furan-1(3H)-one] | 13.31 | < 0.1 | > 0.1 | 
12 | c1cc2c(cc1-c1ccc(OCCCCCCNC3CCCCC3)c3c1CCCC3)OCO2 [Compound of Formula Q, N-(6-(5-(benzo[d][1,3]dioxol-5-yl)-1,2,3,4-tetrahydronaphthalen-8-yloxy)hexyl)cyclohexanamine] | 77.42 |  |  | 
13 | CCOC(=O)c1c(C(=O)OCC)c(-c2ccc3c(c2)OCO3)c2cc(OC)c(OC)cc2c1OC1OCC(OC)C(OC)C1O (stereo not drawn) [Compound of Formula D, diethyl 1-(benzo[d][1,3]dioxol-5-yl)-6,7-dimethoxy-4-(tetrahydro-3-hydroxy-4,5-dimethoxy-2H-pyran-2-yloxy)naphthalene-2,3-dicarboxylate] | 18.2 | 40 | 32 | No activity (Nontoxic)
14 | O=S(=O)(Nc1ccc(-c2ccc3c(c2)OCO3)c2ccccc12)c1ccccc1 [Compound of Formula I, N-(1-(benzo[d][1,3]dioxol-5-yl)naphthalen-4-yl)benzenesulphonamide] | 20.56 |  |  | No activity (Nontoxic)
15 | O=C(CN1CCNCC1)NCCOc1ccc(-c2ccc3c(c2)OCO3)c2ccccc12 [Compound of Formula T, N-(2-(1-(benzo[d][1,3]dioxol-5-yl)naphthalen-4-yloxy)ethyl)-2-(piperazin-1-yl)acetamide] | 81.9 |  |  | 
16 | c1ccc2c(-c3ccc4c(c3)OCO4)ccc(OCCCCN3CCOCC3)c2c1 [Compound of Formula M, 4-(4-(1-(benzo[d][1,3]dioxol-5-yl)naphthalen-4-yloxy)butyl)morpholine] | 76.16 |  |  | 
17 | COc1ccc(-c2ccc(OCCN3CCOCC3)c3ccccc23)cc1OC [Compound of Formula U, 4-(2-(1-(3,4-dimethoxyphenyl)naphthalen-4-yloxy)ethyl)morpholine] | 16.57 |  |  | No activity (Nontoxic)
18 | COc1cc2c(OC(=O)C(c3ccccc3)C3CCCC3)c3c(c(-c4ccc5c(c4)OCO5)c2cc1OC)C(=O)OC3 (stereo not drawn) [Compound of Formula C, 9-(benzo[d][1,3]dioxol-5-yl)-1,3-dihydro-6,7-dimethoxy-1-oxonaphtho[2,3-c]furan-4-yl 2-cyclopentyl-2-phenylacetate] | 14.69 |  |  | No activity (Nontoxic)
19 | COc1cc2c(OCCCCN3CCOCC3)c3c(c(-c4ccc5c(c4)OCO5)c2cc1OC)C(=O)OC3 [Compound of Formula L, 4-(4-morpholinobutoxy)-9-(benzo[d][1,3]dioxol-5-yl)-6,7-dimethoxynaphtho[2,3-c]furan-1(3H)-one] | 21.0 | 0.34 | > 0.34 | No activity (Nontoxic)
20 | c1ccc2c(-c3ccc4c(c3)OCO4)ccc(OCCN3CCOCC3)c2c1 [Compound of Formula O, 4-(2-(1-(benzo[d][1,3]dioxol-5-yl)naphthalen-4-yloxy)ethyl)morpholine] | 20.26 |  |  | No activity (Nontoxic)
